One block for each molecule: values may come before it.
Legend:
[1] = tested on: primary mouse OPCs; assay: OL differentiation in primary mouse OPC culture (MBP, DAPI); format: cell-based; details: 10 nM and 100 nM, concentration-dependent
Excerpt: Mouse and Human primary cell cultures: Primary OPC/OL culture were isolated from the cortices of postnatal day 0–1 C57BL/6J mice of both sexes, using established protocols[11],[20],[21]. Mouse OPC and Neuronal Co-cultures: Primary neuronal cultures were established in Neurobasal medium with B27 and plated on poly-L-lysine-coated coverslips. After 12 days, OPCs were isolated, counted, and added to neuronal cultures and media was replaced with neuronal and proliferation media for 3 days, then switched to maturation media that maintained both neurons and OLs. Human iPSC-derived OPCs (Tempo’s iOligo™) were expanded, cryopreserved, and later plated on Matrigel-coated coverslips. After 3 days in growth medium, cells were treated for 3 weeks with T3 containing maturation medium. Differentiation into myelin-producing OLs was assessed using O4 (OL surface marker on pre-OLs) and myelin basic protein (MBP) immunohistochemistry. In all conditions compounds or vehicle were added to culture during differentiation for either 5 days (mouse) or 18 days (human).
Immunocytochemistry and Image Analysis of cell cultures: After treatment, cells were fixed and stained for MBP and DAPI. Coverslips were imaged using a confocal microscope at 10× and 40× objectives. Cell densities were quantified using ImageJ and normalized to control conditions. MBP-positive cells, their process extensions, and highly branched OLs were counted to assess differentiation. Co-culture images were analyzed for MBP and β3-tubulin colocalization using JACoP[22] in ImageJ, with results validated by manual quantification.
Primary OL Progenitor cells (OPC) and Neuronal Cultures: OPC and cortical neuronal cultures were prepared from the cortices of postnatal day P0-P1 C57BL/6J mice of both sexes, following established protocols (1, 2);(3). The single-cell suspension was divided into two tubes. One tube was treated with warm Neuronal Basal media, counted, and plated onto poly-L-lysine (PLL)-coated glass coverslips. The second tube was resuspended in glial growth medium, composed of DMEM-F12 supplemented with 10% fetal bovine serum, and placed in a PLL-coated culture flask for 8–10 days until confluent. Primary OPCs were then isolated by shaking and either co-cultured with primary neurons or plated onto poly-D-lysine-coated glass coverslips (three coverslips per condition, 2x10^6 cells per coverslip). The OPCs were allowed to attach for three days, followed by five days in differentiating media (DMEM-F12 with Sato media containing triiodothyronine and thyroxine) supplemented with various analogues and remyelinating compounds. For comparison, a negative control (vehicle, consisting of the media and ethanol mixture used to dissolve the analogues and remyelinating compounds) and a normal control (differentiating media alone) were included in the experiments.
Quantification of Mature OLs and Co-culture axon myelination: At the conclusion of the treatment period, cells were fixed and subjected to immunocytochemistry to evaluate myelin basic protein (MBP) expression, co-stained with the nuclear marker DAPI (shown in blue). […] Cell counting was performed using the ImageJ multipoint tool, and cell densities were calculated by dividing the counts by the image area (mm²). […]
To assess OL differentiation, the number of MBP-positive (MBP+) cells and process extensions exceeding the diameter of the cell body were quantified.

[2] = plasma
[3] = tested on: EAE mice; assay: EAE clinical disease score; format: in vivo, C57BL/6J mouse; details: 5 mg/kg/day SC from peak disease
Procedure: EAE induction and treatment: EAE was induced in 8–10-week-old wild-type C57BL/6J mice using MOG₃₅-₅₅ peptide[11],[14],[23]–[25]. Mice were scored daily using a standard clinical scale (0–5) and tested for their ability to stay on a rotarod. […] At peak disease (18–22 days post-immunization), animals were grouped into EAE+Vehicle, EAE+K102, and EAE+K110.
Fig. 3 Experimental design for treatment effects in EAE. (A) Experimental plan. […] Following emulsion injection, mice were injected with pertussis (PTX). Mice were scored for their clinical EAE score daily. EAE mice (red) show signs of disease starting at days 8–17. At peak disease between the days […], therapeutic treatment started and continued daily until the end of the experiment (D35-45). […] N = 6–8 mice/group. Two-Way unbalanced ANOVA with Dunnett’s multiple comparisons test was performed. […]
EAE induction and treatment: Eight to ten-week-old wild-type C57BL/6J mice were induced with active EAE using MOG35-55 peptide as previously described (1-5). […] Animals were scored daily for clinical EAE scores as follows: 0, unaffected; 1, complete tail limpness; 2, failure to right upon attempt to roll over; 3, partial hind limb paralysis; 4, complete hind limb paralysis; […]. At peak disease 18-22 dpi, mice were scored and separated into 3 groups: EAE+V, EAE+SHK-K102, and EAE+K110. […]

[4] = Stability in human plasma; format: in vitro ADME
[5] = hepatocytes
[6] = hepatocytes, 0.25 h
[7] = plasma; remark: listed apart in the source
[8] = molecular target: CYP1A2 (Homo sapiens, UniProt P05177); assay: in vitro
[9] = tested on: multiple sclerosis patients; details: oral estriol combined with glatiramer acetate (GA), Phase 2 trial; cited from earlier work

Sequence of CYP1A2 (P05177 whole entry): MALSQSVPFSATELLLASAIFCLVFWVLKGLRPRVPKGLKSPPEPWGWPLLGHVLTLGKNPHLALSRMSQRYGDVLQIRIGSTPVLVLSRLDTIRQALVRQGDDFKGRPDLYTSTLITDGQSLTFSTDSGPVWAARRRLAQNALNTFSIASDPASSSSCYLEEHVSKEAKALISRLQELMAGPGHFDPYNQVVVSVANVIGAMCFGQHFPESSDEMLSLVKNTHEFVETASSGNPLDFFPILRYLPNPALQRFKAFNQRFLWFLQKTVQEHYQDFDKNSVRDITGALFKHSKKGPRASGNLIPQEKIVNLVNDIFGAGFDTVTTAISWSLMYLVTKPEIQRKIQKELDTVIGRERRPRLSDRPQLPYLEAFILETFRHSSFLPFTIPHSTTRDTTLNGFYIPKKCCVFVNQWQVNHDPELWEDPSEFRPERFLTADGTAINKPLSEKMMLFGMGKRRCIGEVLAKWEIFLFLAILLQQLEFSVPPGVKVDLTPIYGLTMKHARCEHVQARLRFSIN

Protein Binding (% Bound) Human [2]: 98.05%
% Remaining at 6 hr in Human Plasma [4]: 91.37%
Hepatocyte Stability (Human) CLint [5]: 78.30 µL/min/mg protein
Hepatocyte Stability (Human) % Remaining (15 min) ([5]; 0.25 h): 57.83%
Hepatocyte Stability (Mouse) % Remaining (15 min) [6]: 10.94%
Protein Binding (% Bound) Mouse [7]: 97.74%
SMILES: Oc1ccc(-n2nc3ccc(O)cc3c2Cl)cc1 [Compound K101, IndCl]
number of MBP+ cells vs vehicle [1]: significantly increased
EAE clinical disease [3]: decrease in EAE clinical disease

inhibition at 10 µM [8]: 91.7%
SMILES: Cc1nc2c([nH]1)c(=O)n(C)c(=O)n2Cc1ccco1 [Furafylline]

SMILES: C[C@]12CC[C@@H]3c4ccc(O)cc4CC[C@H]3[C@@H]1C[C@@H](O)[C@@H]2O [estriol]
reduction in annualized relapse rate compared to placebo [9]: 32%
